In patent US20250011734A1, “DGAT1/2-INDEPENDENT ENZYME SYNTHESIZING STORAGE LIPIDS (DIESL)” (STICHTING HET NEDERLANDS KANKER INSTITUUT-ANTONI VAN …, priority 2021, published 2025):
Values belong to the molecule of their own block, whether it stands above or below them.

Experiments:
RPE1 cells = assay: Mitochondrial membrane potential and ATP levels in RPE1 cells lacking DIESL cultured without lipoproteins; format: cell-based
Procedure: For BODIPY 493/503 measurements in fixed HAP1 cells, HAP1 cells, grown in 10 cm plates, were collected by trypsinization and were fixed in Fix Buffer I (BD Biosciences) for 10 minutes at 37° C. Cells were pelleted, washed with FACS buffer (10% FBS in PBS), resuspended in FACS buffer and counted. 10 million cells were stained with 1 μg/ml BODIPY 493/503 and 5 μg/ml DAPI (Invitrogen), diluted in FACS buffer, for one hour at room temperature. Cells were washed once in FACS buffer, then passed through a 35 μm nylon mesh cell strainer into a FACS tube. Fluorescence was analyzed on an LSR Fortessa (BD Biosciences) analytical flow cytometer, using 405 and 488 nm lasers to detect DAPI and BODIPY 493/503, respectively. Data were analyzed using FlowJo (BD Life Sciences). Fluorescence plots represent the fluorescent signal measured in single haploid G1 cells, as determined by DAPI fluorescence intensity. […] Fluorescence (using a 561 nm laser) and data were analyzed as above. Fluorescence plots represent the fluorescent signal measured in single cells. Membrane potential was calculated by subtracting the fluorescence mean of depolarized (CCCP-treated) cells. RPE1 cells were plated in 96-well plates and ATP levels were measured using CellTitre-Glo (Promega) according to the manufacturer's instructions. […]

[1] = molecular target: T1, 3xHA-tagged DIESL (human TMEM68, DGAT1/2-Independent Enzyme Synthesizing Storage Lipids) (human, UniProt Q96MH6 1-324, N-glycosylation at its N-terminus (N-X-S/T motif; N5Q mutant served as negative control)); assay: summary of the examples (crosslinking and co-immunoprecipitation)
T1 construct: It is an ER membrane protein and was assayed in cells or cell lysates; also called 3xHA-DIESL; transmembrane protein 68; not shown: the N-terminal position is inferred only from the name 3xH
T1 sequence: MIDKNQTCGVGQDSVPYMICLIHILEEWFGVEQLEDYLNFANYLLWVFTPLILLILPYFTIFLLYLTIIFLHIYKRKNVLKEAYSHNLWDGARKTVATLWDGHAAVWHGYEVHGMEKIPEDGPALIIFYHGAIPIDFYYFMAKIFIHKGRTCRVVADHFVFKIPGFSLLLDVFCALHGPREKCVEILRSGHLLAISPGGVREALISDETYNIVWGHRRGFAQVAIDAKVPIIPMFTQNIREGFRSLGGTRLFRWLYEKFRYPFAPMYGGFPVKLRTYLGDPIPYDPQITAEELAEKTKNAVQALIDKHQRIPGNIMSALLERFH
Procedure: HAP1 ΔDIESL and ATMX1ΔDIESL cells reconstituted with 3xHA-DIESL, or HeLa WT cells expressing 3xHA-DIESL, were washed with PBS and incubated in 1% paraformaldehyde for 20 minutes at room temperature. Cross-linking reactions were quenched by incubation in 0.2 M glycine for 10 minutes. Cells were then lysed in RIPA buffer on ice as described above, sonicated and protein concentrations were determined. Samples were separated by SDS-PAGE and immunoblotted as described above.
HAP1 ΔDIESL cells reconstituted with 3xHA-DIESL, grown to confluence in a 6-well plate, were lysed in 400 μl IP buffer (25 mM HEPES PH 7.0, 150 mM NaCl, 1% detergent [Tween-20 unless otherwise indicated], and protease/phosphatase inhibitor cocktails) on ice, sonicated and cleared by centrifugation. 250 μl of lysate was incubated with 10 μl of PBS-washed anti-HA magnetic beads (Pierce) overnight while rotating at 4° C. The following day, beads were washed three times in IP buffer before elution in SDS-PAGE sample buffer at 90° C. for 20 minutes. One-quarter of this eluate (along with the corresponding amount of input sample) were separated by SDS-PAGE and subjected to immunoblot analysis as above.

Molecule: CCOC(=O)[C@@]1(CCCCCCOc2ccc(Cl)cc2)CO1 [etomoxir]
Effect of CPT1A inhibition on the oleic acid rescue (RPE1 cells; DIESL-deficient RPE1 cells without lipoproteins plus oleic acid, data not shown): sensitive

Molecule: CCCCCCCC/C=C\CCCCCCCC(=O)O [oleic acid]
Rescue of decreased mitochondrial membrane potential and ATP levels (RPE1 cells; DIESL-deficient RPE1 cells, lipoprotein-deficient medium supplemented with 50 µM oleic acid for 24 hours, FIG. 19F): rescued

binding result [1]: binds
B1: Thioredoxin related transmembrane protein 1 (TMX1), human, endogenous in HAP1 / HeLa cells (enzyme)
chain: RRSNVRVITDENWRELLEGDWMIEFYAPWCPACQNLQPEWESFAEWGEDLEVNIAKVDVTEQPGLSGRFIITALPTIYHCKDGEFRRYQGPRTKKDFINFISDKEWKSIEPVSSWFGPGSVLMSSMSALFQLSMWIRTCHNYFIEDLGLPVWGSYTVFALATLFSGLLLGLCMIFVADCLCPSKRRRPQPYPYPSKKLLSESAQPLKKVEEEQEADEEDVSEEEAESKEGTNKDFPQNAIRQRSLGPSLATDKS
notes: Endogenous TMX1 of human cell lines (HAP1, HeLa), an ER membrane protein, detected with anti-TMX1 antibodies; also called transmembrane thioredoxin 1; TMX1 polypeptide
